From paper PMC6328587 (Nature Communications, 2019)
Read-outs that look alike come from different tables or passages of the source.

Tests used:
Format in all cases: cell-based
p38α [1] = biological target: T1, p38α (Homo sapiens, UniProt Q16539); test: PROTAC-induced p38α degradation, western blot in MDA-MB-231 cells
T1 construct: SJFα PROTAC (13-atom linker, amide attachment) selectively degrades p38α; endogenous in cells; host or cells: MDA-MB-231
Experimental: (§1) MDA-MB-231 and HeLa cells were obtained from the American Type Culture Collection (ATCC), cultured in RPMI-1640 medium (1 × ) and Dulbecco’s modified Eagle’s medium (DMEM; 1 × ), respectively, containing 10% fetal bovine serum and 1% penicillin–streptomycin and grown in a humidified incubator at 37 °C and 5% CO2.
(§2) […] once with ice-cold PBS (1 × ), followed by lysis in buffer containing 25 mM Tris [pH 7.5], 0.25% sodium deoxycholate, 1% Triton X-100, supplemented with 1X protease inhibitor cocktail (Roche), and phosphatase inhibitors (10 mM NaF, 1 mM Na3VO4, and 20 mM β-glycerophosphate), unless otherwise noted. Lysates were spun at 14,000 × g for 10 min at 4 °C and supernatant was evaluated for protein content using a Pierce BCA Protein Assay (ThermoFisher Scientific). In all experiments, 25–50 μg of protein was loaded onto 10% SDS-PAGE gels or 4–20% Criterion TGX precast gradient gels (Bio-Rad), transferred to nitrocellulose membranes, and probed with the specified antibodies overnight at 4 °C in 1X TBS-Tween (Tris-buffered saline plus 0.02% Tween 20) containing 5% non-fat milk. Immunoblots were visualized using a Bio-Rad ChemiDoc imaging instrument and subsequently processed and quantified using the accompanying Bio-Rad ImageLab software. See Supplementary Figure 8 for uncropped scans of western blots shown in the main text figures.
(§3) Western blot data in Figs. 2, 6, and Supplementary Figures 2, 3 were quantified by using the band feature in Image Lab (Bio-Rad). The p38 values were normalized to the α-tubulin signal to account for differences in protein load, and PROTAC-treated normalized values were expressed as a % of the vehicle-treated (no PROTAC) value, which itself was defined as 100% p38 protein level. […] The sigmoidal fit established both the full extent of degradation, or Dmax at the bottom asymptote of the curve, as well as the DC50, which is the inflection point at which 50% of the total degradation observed was reached.

p38δ [2] = biological target: T2, p38δ (Homo sapiens, UniProt O15264); test: PROTAC-induced p38δ degradation, western blot in MDA-MB-231 cells
T2 construct: endogenous in cells; host or cells: MDA-MB-231
T2 sequence (O15264 1-365): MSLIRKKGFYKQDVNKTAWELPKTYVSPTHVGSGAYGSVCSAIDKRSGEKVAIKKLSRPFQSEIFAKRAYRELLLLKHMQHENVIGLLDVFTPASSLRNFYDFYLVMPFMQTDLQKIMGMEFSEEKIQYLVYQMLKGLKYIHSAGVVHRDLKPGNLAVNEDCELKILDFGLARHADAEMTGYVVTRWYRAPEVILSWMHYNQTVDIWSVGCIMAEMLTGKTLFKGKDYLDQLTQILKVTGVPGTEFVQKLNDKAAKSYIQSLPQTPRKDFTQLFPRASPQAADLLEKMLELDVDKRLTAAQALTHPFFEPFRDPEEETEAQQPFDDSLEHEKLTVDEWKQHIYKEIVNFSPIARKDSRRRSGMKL
Experimental: as §1, §2, §3

p38α [3] = biological target: T1, p38α; test: PROTAC washout assay, p38α; conditions: 250 nM PROTAC for 24 h, then re-plated in fresh medium
Experimental: (§4) MDA-MB-231 cells were plated at 1.5 × 10^5 cells per well in a six-well dish and allowed to adhere overnight. On the following day, all cells were treated with either vehicle (DMSO) or PROTAC (250 nM). After 24 h, cells were either harvested or washed with 1X PBS, trypsinized, and re-plated onto new six-well dishes in fresh RPMI-1640 (1 × ) media without additional compound. For these washout conditions, cells were collected every 24 h until final harvest (72 h washout).

FLAG-p38α = biological target: T3, FLAG-p38α (Homo sapiens, UniProt Q16539); test: Ubiquitination assay, FLAG-p38α and HA-Ub in HeLa cells; conditions: 500 nM PROTAC, 1 h
T3 construct: expressed in transfected cells; host or cells: HeLa
T3 sequence (Q16539 whole entry): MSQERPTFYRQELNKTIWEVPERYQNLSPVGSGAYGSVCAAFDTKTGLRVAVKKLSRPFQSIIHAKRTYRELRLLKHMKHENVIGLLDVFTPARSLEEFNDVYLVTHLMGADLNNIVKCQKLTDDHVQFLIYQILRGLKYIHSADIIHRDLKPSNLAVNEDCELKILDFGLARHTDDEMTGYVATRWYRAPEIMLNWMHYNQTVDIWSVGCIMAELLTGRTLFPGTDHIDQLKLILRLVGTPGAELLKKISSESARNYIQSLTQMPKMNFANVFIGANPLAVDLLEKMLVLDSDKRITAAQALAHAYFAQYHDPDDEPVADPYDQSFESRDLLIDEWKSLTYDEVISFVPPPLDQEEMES
Experimental: HeLa cells (2 × 10^6) were seeded into 10 cm dishes and allowed to adhere overnight. On the following day, cells were transfected with 3 µg pcDNA5-FLAG-p38α or pcDNA5-FLAG-p38δ and 1 µg pRK5-HA-Ubiquitin-WT (Addgene plasmid #17608) in Opti-MEM media using Lipofectamine 2000 (Invitrogen). After 6 h, Opti-MEM media were replaced with DMEM (1 × ) and cells were grown for an additional 24 h. After this time, cells were treated with indicated concentrations of either vehicle (DMSO) or PROTAC for the indicated amount of time at 37 °C. Cells were then placed on ice, rinsed twice with ice-cold 1X PBS and lysed in 500 µL modified 1X RIPA buffer (25 mM Tris-HCl pH 7.6, 150 mM NaCl, 1% NP-40, 1% sodium deoxycholate, 0.1% SDS) containing 5 mM 1,10-phenanthroline monohydrate, 10 mM N-ethylmaleimide, 20 µM PR-619, and 1X protease inhibitor cocktail (Roche). Lysates were spun down at 14,000 × g at 4 °C for 20 min and protein content was measured by Pierce BCA Protein Assay (ThermoFisher Scientific). […] Immunoprecipitated protein was eluted off of the beads by heating at 95 °C for 5 min and the supernatant was run on an SDS-PAGE gel and evaluated for the presence of immunoprecipitated FLAG-tagged proteins (anti-FLAG M2, Sigma #F1804), as well as ubiquitinated FLAG-tagged proteins (anti-HA-tag (6E2), CST #2367). […]

p38δ [4] = biological target: T2, p38δ; test: PROTAC washout assay, p38δ; conditions: 250 nM PROTAC for 24 h, then re-plated in fresh medium
Experimental: as §4

[5] = 0.025-5.0 µM survey, biological duplicates, ± one s.d., Supplementary Table 1
[6] = 0.025-5.0 µM survey, ± one s.d., Supplementary Table 1, read-out: Dmax p38α (maximum percentage of degradation)
[7] = wider dose response 1 nM-100 µM, Supplementary Figure 3
[8] = 0.025-5.0 µM survey, ± one s.d., Supplementary Table 1, read-out: Dmax p38δ (maximum percentage of degradation)
[9] = wider dose response 1 nM-100 µM, Supplementary Figure 3, read-out: Dmax p38δ

T1 sequence (Q16539 whole entry): as above

p38α downregulation after pre-treatment with 1 µM epoxomicin or 1 µM MLN4924 (p38α [1]; 250 nM PROTAC, 6 h) | DC50 (p38α [1]; [5]) | Dmax (p38α [1]; [6]) | hook effect in p38α degradation (p38α [1]; up to 100 µM) | DC50 (p38α [1]; [7]) | Dmax (p38α [1]; wider dose response 1 nM-100 µM, Supplementary Figure 3, read-out: Dmax p38α) | DC50 (p38δ [2]; [5]) | Dmax (p38δ [2]; [8]) | Dmax (p38δ [2]; [9]) | time p38α degradation efficacy is maintained post-washout (p38α [3]) | p38α degradation (in words) (p38α [1]) | p38δ downregulation after pre-treatment with 1 µM epoxomicin or 1 µM MLN4924 (p38δ [2]; 250 nM PROTAC, 6 h) | hook effect in p38δ degradation (p38δ [2]; up to 100 µM) | DC50 (p38δ [2]; [7]) | time p38δ degradation efficacy is maintained post-washout (p38δ [4]) | SMILES | ubiquitination of FLAG-p38α (FLAG-p38α)
completely rescued | 9.5 ± 1 nM | 99.6 ± 1.1% | no hook effect | 7.16 ± 1.03 nM | 97.4% | 1160 ± 2470 nM | 25.1 ± 22.7% | 18% | 72 h | – | – | – | – | – | COc1cc2c(Oc3ccc(NC(=O)C4(C(=O)Nc5ccc(F)cc5)CC4)cc3F)ccnc2cc1OCCCCOCCCCOCC(=O)N[C@H](C(=O)N1C[C@H](O)C[C@H]1C(=O)NCc1ccc(-c2scnc2C)cc1)C(C)(C)C [SJFα] | substantial, high molecular weight (HMW) poly-Ub conjugation
– | 45.9 ± 81.3 nM | 34.5 ± 10.1% | – | – | – | 79.2 ± 28 nM | 98.4 ± 6.6% | 99.4 ± 3.31% | – | does not degrade | completely rescued | no hook effect | 46.2 ± 9.85 nM | 24 h | COc1cc2c(Oc3ccc(NC(=O)C4(C(=O)Nc5ccc(F)cc5)CC4)cc3F)ccnc2cc1OCCOCCOCCOc1cc(-c2scnc2C)ccc1CNC(=O)[C@@H]1C[C@@H](O)CN1C(=O)[C@H](C(C)C)N1Cc2ccccc2C1=O [SJFδ] | this effect was not seen
